Earlier results in PMC4104431 (Nuclear medicine and biology, 2014).

Legend:
[1] = target: CXCR4 (Homo sapiens, UniProt P61073)
CXCR4, sequence (P61073 whole entry): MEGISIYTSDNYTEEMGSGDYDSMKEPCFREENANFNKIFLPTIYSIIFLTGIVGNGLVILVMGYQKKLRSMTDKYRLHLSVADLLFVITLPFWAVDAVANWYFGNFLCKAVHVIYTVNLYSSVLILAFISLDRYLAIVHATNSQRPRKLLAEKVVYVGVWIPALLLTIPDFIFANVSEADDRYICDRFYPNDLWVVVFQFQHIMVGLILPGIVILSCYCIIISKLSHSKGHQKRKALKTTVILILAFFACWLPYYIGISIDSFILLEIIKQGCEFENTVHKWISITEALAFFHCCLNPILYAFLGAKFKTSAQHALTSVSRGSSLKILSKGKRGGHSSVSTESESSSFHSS

## c1cc(CN2CCCNCCNCCCNCC2)ccc1CN1CCCNCCNCCCNCC1 [AMD3100]
[1]
  Fold increase in affinity for CXCR4 when bound to Cu(II): 7 fold
other
  Metabolic stability: metabolically stable

## c1ccc(CNCc2ccc(CN3CCCNCCNCCCNCC3)cc2)nc1 [AMD3465]
other
  Metabolic stability: metabolically stable
